From patent US7501410B2, “Methods of inhibiting BTK and SYK protein kinases” (Roche Palo Alto LLC, priority 2006, dated 2009)

The molecules below were run against T1, Bruton's Tyrosine Kinase (Btk) (Homo sapiens, UniProt Q06187) (assay: Determination of IC50 of Bruton's Tyrosine Kinase (Btk) inhibition, 33P filtration assay). Details: His-tagged full-length Btk, 100 μM ATP.
T1 construct: 5-10 nM Btk enzyme (His-tagged, full-length); His tag
Format: biochemical
Procedure, shortened: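 Full-length His-tagged Btk (5-10 nM) preincubated 10 min at RT with compounds, then 30 min at 30° C with 30 μM biotinylated SH2 peptide, 100 μM ATP plus ^33P ATP, Mn/Mg in imidazole buffer pH 7.2. Product captured on streptavidin beads, counted by scintillation; 10-point half-log IC50 from 100 μM, background without substrate.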

T1 sequence (Q06187 whole entry): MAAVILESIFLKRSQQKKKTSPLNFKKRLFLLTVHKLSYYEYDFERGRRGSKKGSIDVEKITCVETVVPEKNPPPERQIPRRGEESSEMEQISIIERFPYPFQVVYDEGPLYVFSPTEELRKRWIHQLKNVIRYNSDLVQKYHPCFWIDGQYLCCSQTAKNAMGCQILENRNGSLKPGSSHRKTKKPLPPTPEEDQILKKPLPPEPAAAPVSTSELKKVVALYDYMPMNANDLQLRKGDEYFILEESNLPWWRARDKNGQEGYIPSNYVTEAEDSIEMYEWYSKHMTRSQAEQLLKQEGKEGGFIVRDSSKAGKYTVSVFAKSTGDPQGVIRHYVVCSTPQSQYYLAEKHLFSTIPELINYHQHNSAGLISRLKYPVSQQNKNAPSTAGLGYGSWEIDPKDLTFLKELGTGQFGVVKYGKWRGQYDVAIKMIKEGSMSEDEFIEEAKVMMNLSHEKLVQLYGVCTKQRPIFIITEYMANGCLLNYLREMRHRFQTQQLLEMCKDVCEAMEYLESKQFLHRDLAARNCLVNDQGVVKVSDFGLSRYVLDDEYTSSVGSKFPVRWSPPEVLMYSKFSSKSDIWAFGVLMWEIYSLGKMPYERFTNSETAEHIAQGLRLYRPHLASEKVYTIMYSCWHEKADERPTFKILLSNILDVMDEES

| SMILES | IC50 |
| --- | --- |
| Cc1cc(Nc2nn(C(C)C)c(=O)c3cc(N4CCOCC4)ccc23)n[nH]1 [Example F-1, 2-Isopropyl-4-(5-methyl-1H-pyrazol-3-ylamino)-7-morpholino-2H-phthalazin-1-one] | 0.275 µM |
| Cc1cc(Nc2nn(C(C)C)c(=O)c3cc(N4CCN(C)CC4)ccc23)[nH]n1 [Example F-5, 2-Isopropyl-7-(4-methyl-piperazin-1-yl)-4-(5-methyl-2H-pyrazol-3-ylamino)-2H-phthalazin-1-one] | 0.102 µM |
| Cc1cc(Nc2nn(C(C)C)c(=O)c3cc(OCCN(C)C)ccc23)n[nH]1 [Example ZD-5, 7-(2-Dimethylamino-ethoxy)-2-isopropyl-4-(5-methyl-1H-pyrazol-3-ylamino)-2H-phthalazin-1-one] | 0.186 µM |
